In general, EC50 refers to the concentration needed to bring the measured effect to its halfway point.

In BindingDB's records for doi:10.1016/j.ejmech.2014.09.039 (2014) one finds EC50 data, which are given here for 2 compounds.

This assay has as its target Neuronal acetylcholine receptor subunit alpha-7 (Homo sapiens, UniProt P36544). Nature of the assay: Positive allosteric modulation at human alpha7 nACHR expressed in Xenopus oocyte assessed as potentiation of ACh-induced current at holding potential of -80 mV measured as ACh EC50 at 1 uM by electrophysiology (Rvb = 176 uM).

Chain of Neuronal acetylcholine receptor subunit alpha-7 (P36544 whole entry): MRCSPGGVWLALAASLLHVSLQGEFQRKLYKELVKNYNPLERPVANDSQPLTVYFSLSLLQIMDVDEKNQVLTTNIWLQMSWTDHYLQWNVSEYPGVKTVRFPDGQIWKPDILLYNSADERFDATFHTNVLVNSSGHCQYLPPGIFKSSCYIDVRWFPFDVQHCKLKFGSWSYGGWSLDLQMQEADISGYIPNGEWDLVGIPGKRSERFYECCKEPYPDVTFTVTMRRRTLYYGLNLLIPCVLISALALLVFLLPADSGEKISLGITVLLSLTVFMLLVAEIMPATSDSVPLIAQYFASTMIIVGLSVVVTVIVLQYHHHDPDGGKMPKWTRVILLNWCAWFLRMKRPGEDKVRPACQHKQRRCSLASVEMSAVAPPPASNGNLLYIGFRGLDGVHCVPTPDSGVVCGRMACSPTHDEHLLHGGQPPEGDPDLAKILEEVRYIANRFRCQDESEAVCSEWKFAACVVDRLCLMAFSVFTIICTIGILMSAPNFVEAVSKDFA

For the compound `O=C(/C=C/c1ccc(O)cc1)c1cc(O)ccc1O`, the EC50 came to 56 µM. Turning to `O=C(/C=C/c1ccc(O)cc1O)c1cc(O)ccc1O`, the EC50 was 125 µM.
